Structures are written as SMILES.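 48-hour exposure; five concentrations; linearly interpolated endpoints. GI50 marks 50% less growth. At the TGI there is no net growth.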

Holding throughout (assay): DTP human tumour cell line panel, 48 h
Test [1] deals with HCT-15 colon.
In test [2] the test system is HT29 colon.
For test [3], the system named is IGROV1 ovarian.
Test [4] relates to KM12 colon.
Test [5] concerns SF-268 CNS.
Test [6] deals with SF-295 CNS.
In test [7] the test system is SNB-19 CNS.
Test [8] relates to SNB-75 CNS.
Test [9] has as its system U251 CNS.
For test [10], the system named is UACC-62 melanoma.

In the case of `NC1=NS(=O)(=O)Nc2nc(-c3cccs3)[nH]c21`, the TGI in test [1], in test [2], in test [3], in [4], in test [5] and in test [6] was > 100 µM each time. The TGI in test [7], in test [8], in [9] and in [10] was > 100 µM each time.

Consider `C=C1C(=O)OC2/C=C(\C)CC(O)/C=C(/CO)CC(OC(=O)/C(C)=C/C)C12` (centres undefined), for which the TGI amounted to 151 µM in test [1]; 303 µM in test [2]; 121 µM in [3]; 229 µM in test [4]; 233 µM in [5]; 401 µM in test [6]. For the same compound, the TGI stood at 353 µM in test [7], 417 µM in [8], 303 µM in test [9] and 274 µM in [10].

Consider `O=C(/N=C/c1c(O)c2ccccc2oc1=O)NC1CCCCC1`, for which the TGI in [1], in test [2], in [3], in test [5], in [7] and in [10] was > 100 µM each time.

Consider `CC(O)=NC(Cc1ccc2ccccc2c1)C(O)=NC(Cc1ccc(Cl)cc1)C(O)=NC(Cc1c[nH]c2ccccc12)C(O)=NC(CO)C(O)=NC(Cc1ccc(O)cc1)C(O)=NC(CCCN=C(N)N)C(O)=NC(CC(C)C)C(O)=NC(CCCN=C(N)N)C(=O)N1CCCC1C(O)=NC(C)C(=N)O` (centres undefined), for which the TGI in test [1], in test [2], in [3], in [4], in test [5] and in test [6] was > 100 µM each time. Also, the TGI was > 100 µM in test [7], > 100 µM in [8], 61.4 µM in test [9] and > 100 µM in test [10].

On to `Cc1onc(-c2c(F)cccc2Cl)c1C(=O)N[C@@H]1C(=O)N2[C@@H]1SC(C)(C)[C@@H]2C(=O)O`, for which the TGI in test [1], in [2], in [3], in test [4], in [5] and in test [6] was > 100 µM throughout. Moreover, the TGI in test [7], in test [8], in test [9] and in test [10] was > 100 µM throughout.

`CC(C)Cc1cccc(C(C)C)c1NC(=O)CCC(=O)N/N=C1\C(=N/NC(=O)CCC(=O)Nc2c(C(C)C)cccc2C(C)C)C(c2ccc3c(c2)OCO3)Oc2ccccc21` (centres undefined): the TGI in test [1], in test [2], in test [3], in test [4], in test [5] and in test [6] was > 100 µM throughout. For the same compound, the TGI in test [7], in [8], in test [9] and in test [10] was > 100 µM in each case.

For `FC(F)(F)C1=NC(=NNc2nnc(-c3ccccc3)c(-c3ccccc3)n2)N=C(C(F)(F)F)C1`, the TGI in test [1], in test [2], in test [3], in test [4], in [5] and in [6] was > 100 µM in each case. For the same compound, the TGI is > 100 µM in test [7], > 100 µM in test [8], > 86.3 µM in test [9] and 30 µM in test [10].

For `CS(=O)(=O)OCc1c(O)c2c(c(O)c1COS(C)(=O)=O)C(=O)C=CC2=O`, the TGI in test [1], in test [2], in test [3], in test [4], in [5] and in test [6] was > 100 µM throughout. The TGI in test [8], in [9] and in [10] was > 100 µM each time.

Take `O=c1cc(-c2nc3ccccc3[nH]2)[nH]c2nc(-c3nc4ccccc4[nH]3)cc(-c3ccc(Cl)cc3)c12`: the TGI in [1] is 25.5 µM; in [2], 42.5 µM; in test [3], 25.5 µM; in test [4], 64.4 µM; in [5] it was 47.5 µM; in test [6], 48.2 µM. Moreover, the TGI in [7] is > 100 µM; in [9] it was 40 µM; in test [10] it was 33.2 µM.

For the compound `CN(C)CCC(C(=O)C(C)(C)C)c1ccccn1` (centres undefined), the TGI in [1], in [2], in test [3], in test [4], in test [5] and in test [6] was > 100 µM throughout. The TGI in test [7], in test [8], in test [9] and in test [10] was > 100 µM throughout.

For the compound `C[C@H](O)C(=O)SC[C@H](NC(=O)CC[C@@H](N)C(=O)O)C(=O)NCC(=O)O`, the TGI in [1], in test [2], in [3], in test [4], in [5] and in test [6] was > 100 µM in each case. Besides, the TGI in test [8], in test [9] and in [10] was > 100 µM each time.

Regarding `COc1c2ccoc2c(S(=O)(=O)Nc2ccc(Cl)cc2)c2oc(C)cc(=O)c12`, the TGI in test [1], in [2], in [3], in [4], in [5] and in test [6] was > 100 µM in each case. Besides, the TGI in [7] was > 100 µM; in test [8] it was 76.4 µM; in test [9] it was > 100 µM; in test [10], > 100 µM.

Regarding `COc1ccc(-n2cc(-c3ccc(OC)c(OC)c3)nc2SCc2ccccc2)cc1Cl`, the GI50 in test [1] is 20 µM; in [2], 17 µM; in test [3], 12.9 µM; in [4] it was 21.3 µM; in test [5], 30.4 µM; in [6], 17.4 µM. Also, the GI50 in [7] was 32.5 µM; in test [8], 27.4 µM; in [9], 22.4 µM; in test [10], 20.8 µM. Moreover, the TGI is > 100 µM in [1]; > 100 µM in test [2]; > 100 µM in test [3]; 68.1 µM in [4]; > 100 µM in test [5]; > 100 µM in [6]. Moreover, the TGI in test [7], in test [8], in test [9] and in test [10] was > 100 µM each time.

As for `ClCC1(CCl)COC1`, the TGI in test [1], in test [2], in test [4], in test [5], in test [6] and in test [7] was > 100 µM in each case. Further, the TGI in [8] and in test [9] was > 100 µM throughout.

`Oc1ccc2ccccc2c1Cc1c(O)ccc2ccccc12`: the TGI in test [1] worked out at 32.7 µM; in test [2], 46.5 µM; in test [3], 13.4 µM; in test [4], 43.9 µM; in test [5] it was 31.1 µM; in test [6], 37.1 µM. The TGI is 36.7 µM in test [7], 42.2 µM in test [8], 34.4 µM in test [9] and 29.4 µM in test [10].

As to `CCCC(=O)OCC(O)CO` (centres undefined), the TGI in test [1], in [2], in test [3], in test [4], in test [5] and in test [6] was > 5000 µM each time. For the same compound, the TGI in [8], in test [9] and in [10] was > 5000 µM throughout.

In the case of `C[C@]12CC[C@H](O)CC1=CC[C@@H]1[C@@H]2CC[C@]2(C)C(=O)CC[C@@H]12`, the TGI in test [1], in [2], in [4], in test [5], in [6] and in test [7] was > 100 µM in each case. Besides, the TGI in test [8], in [9] and in test [10] was > 100 µM in each case.

Consider `CO[C@]12C[C@H](CNC(=O)c3cc(Br)c(Br)[nH]3)O[C@H]1NC(=O)N2`, for which the TGI in [1], in test [2], in [3], in test [4], in [5] and in [6] was > 100 µM throughout. In addition, the TGI in test [7], in test [8], in test [9] and in [10] was > 100 µM each time.

What is called TGI is the concentration at which net growth stops. Read a high TGI as less potent growth arrest. As usually defined, the GI50 is the concentration at which growth is held to half of that of the control.

For the origin of these results see PubChem BioAssay (NCI).
